Test results reported in ChEMBL document CHEMBL5576134, “Targeting Pancreatic Cancer with Novel Nicolaioidesin C Derivatives: Molecular Mechanism, In Vitro, and In Vivo Evaluations” (J Med Chem, 2024).

Columns and labels:
MIA PaCa-2 [1] = assay: Preferential cytotoxicity against human MIA PaCa-2 cells in nutrient-deprived medium measured after 24 hrs by WST-8 cell counting analysis; format: functional
MIA PaCa-2 [2] = assay: Preferential cytotoxicity against human MIA PaCa-2 cells in DMEM measured after 24 hrs by WST-8 cell counting analysis; format: functional, cell-based; conditions: MIA PaCa-2, 24 h
PANC-1 [3] = assay: Preferential cytotoxicity against human PANC-1 cells in DMEM measured after 24 hrs by WST-8 cell counting analysis; format: functional, cell-based; conditions: PANC-1, 24 h
[4] = Selectivity index, ratio of IC50 for preferential cytotoxicity against human MIA PaCa-2 cells in DMEM to PC50 for preferential cytotoxicity against human MIA PaCa-2 cells in nutrient-deprived medium; format: functional
[5] = Selectivity index, ratio of IC50 for preferential cytotoxicity against human PANC-1 cells in DMEM to PC50 for preferential cytotoxicity against human PANC-1 cells in nutrient-deprived medium; format: functional
PANC-1 [6] = assay: Preferential cytotoxicity against human PANC-1 cells in nutrient-deprived medium measured after 24 hrs by WST-8 cell counting analysis; format: functional

COc1cc(O)c(C(=O)[C@H]2CC=C(CCC=C(C)C)C[C@@H]2c2cc(F)cc(F)c2)c(O)c1
PC50 (MIA PaCa-2 [1]): 0.79 µM
IC50 (MIA PaCa-2 [2]): 17.9 µM
IC50 (PANC-1 [3]): 13.5 µM
Selectivity Index [4]: 22.6
Selectivity Index [5]: 18.6
PC50 (PANC-1 [6]): 0.73 µM

COc1cc(O)c(C(=O)[C@H]2CC=C(CCC=C(C)C)C[C@@H]2c2ccccc2)c(O)c1
PC50 (MIA PaCa-2 [1]): 2.76 µM
IC50 (MIA PaCa-2 [2]): 61.4 µM
IC50 (PANC-1 [3]): 25.3 µM
Selectivity Index [4]: 22.3
Selectivity Index [5]: 46.3
PC50 (PANC-1 [6]): 0.55 µM

COc1cccc(O)c1C(=O)[C@H]1CC=C(CCC=C(C)C)C[C@@H]1c1ccccc1
PC50 (MIA PaCa-2 [1]): 31.8 µM
IC50 (MIA PaCa-2 [2]): > 100 µM
IC50 (PANC-1 [3]): 33.9 µM
Selectivity Index [5]: 10.3
PC50 (PANC-1 [6]): 3.3 µM

CC(C)=CCCC1=CC[C@H](C(=O)c2c(O)cccc2O)[C@@H](c2cc(F)ccc2F)C1 (relative stereo)
PC50 (MIA PaCa-2 [1]): 0.77 µM
IC50 (MIA PaCa-2 [2]): 20.8 µM
IC50 (PANC-1 [3]): 11.2 µM
Selectivity Index [4]: 26.9
Selectivity Index [5]: 21.1
PC50 (PANC-1 [6]): 0.53 µM

CC(C)=CCCC1=CC[C@H](C(=O)c2c(O)cccc2O)[C@@H](c2ccc(F)cc2F)C1 (relative stereo)
PC50 (MIA PaCa-2 [1]): 0.34 µM
IC50 (MIA PaCa-2 [2]): 11.1 µM
IC50 (PANC-1 [3]): 7.18 µM
Selectivity Index [4]: 32.6
Selectivity Index [5]: 26.1
PC50 (PANC-1 [6]): 0.27 µM

COc1cc(O)c(C(=O)[C@H]2CC=C(CCC=C(C)C)C[C@@H]2c2cccc(F)c2F)c(O)c1 (relative stereo)
PC50 (MIA PaCa-2 [1]): 1.01 µM
IC50 (MIA PaCa-2 [2]): 33.8 µM
IC50 (PANC-1 [3]): 24.4 µM
Selectivity Index [4]: 33.4
Selectivity Index [5]: 38
PC50 (PANC-1 [6]): 0.64 µM

CC(C)=CCCC1=CC[C@H](C(=O)c2c(O)cccc2O)[C@@H](c2ccccc2F)C1 (relative stereo)
PC50 (MIA PaCa-2 [1]): 0.84 µM
IC50 (MIA PaCa-2 [2]): 25 µM
IC50 (PANC-1 [3]): 13.8 µM
Selectivity Index [4]: 29.6
Selectivity Index [5]: 29.5
PC50 (PANC-1 [6]): 0.47 µM

COc1cc(O)c(C(=O)[C@H]2CC=C(CCC=C(C)C)C[C@@H]2c2ccc(C)cc2)c(O)c1 (relative stereo)
PC50 (MIA PaCa-2 [1]): 3.65 µM
IC50 (MIA PaCa-2 [2]): 93.3 µM
IC50 (PANC-1 [3]): > 100 µM
Selectivity Index [4]: 25.5
PC50 (PANC-1 [6]): 0.56 µM

CC(C)=CCCC1=CC[C@H](C(=O)c2c(O)cccc2O)[C@@H](c2ccc(F)c(F)c2)C1 (relative stereo)
PC50 (MIA PaCa-2 [1]): 0.68 µM
IC50 (MIA PaCa-2 [2]): 23.1 µM
IC50 (PANC-1 [3]): 11 µM
Selectivity Index [4]: 33.8
Selectivity Index [5]: 33.5
PC50 (PANC-1 [6]): 0.33 µM

COc1cc(O)c(C(=O)[C@H]2CC=C(CCC=C(C)C)C[C@@H]2c2c(F)cccc2F)c(O)c1 (relative stereo)
PC50 (MIA PaCa-2 [1]): 1.54 µM
IC50 (MIA PaCa-2 [2]): 26.3 µM
IC50 (PANC-1 [3]): 19.4 µM
Selectivity Index [4]: 17
Selectivity Index [5]: 13
PC50 (PANC-1 [6]): 1.49 µM

COc1cccc(OC)c1C(=O)[C@H]1CC=C(CCC=C(C)C)C[C@@H]1c1ccccc1 (relative stereo)
PC50 (MIA PaCa-2 [1]): 13.6 µM
IC50 (MIA PaCa-2 [2]): > 100 µM
IC50 (PANC-1 [3]): 40 µM
Selectivity Index [5]: 24.1
PC50 (PANC-1 [6]): 1.66 µM

CC(C)=CCCC1=CC[C@H](C(=O)c2c(O)cccc2O)[C@@H](c2cccc(Cl)c2)C1 (relative stereo)
PC50 (MIA PaCa-2 [1]): 1.09 µM
IC50 (MIA PaCa-2 [2]): 29.1 µM
IC50 (PANC-1 [3]): 14.8 µM
Selectivity Index [4]: 26.8
Selectivity Index [5]: 17.4
PC50 (PANC-1 [6]): 0.85 µM

COc1cc(O)c(C(=O)[C@H]2CC=C(CCC=C(C)C)C[C@@H]2c2cc(F)ccc2F)c(O)c1 (relative stereo)
PC50 (MIA PaCa-2 [1]): 0.81 µM
IC50 (MIA PaCa-2 [2]): 26.6 µM
IC50 (PANC-1 [3]): 17.1 µM
Selectivity Index [4]: 32.7
Selectivity Index [5]: 34.4
PC50 (PANC-1 [6]): 0.5 µM

CC(C)=CCCC1=CC[C@H](C(=O)c2c(O)cccc2O)[C@@H](c2ccc(Cl)cc2Cl)C1 (relative stereo)
PC50 (MIA PaCa-2 [1]): 0.78 µM
IC50 (MIA PaCa-2 [2]): 22.2 µM
IC50 (PANC-1 [3]): 10 µM
Selectivity Index [4]: 28.6
Selectivity Index [5]: 23.5
PC50 (PANC-1 [6]): 0.43 µM

COc1cc(O)c(C(=O)[C@H]2CC=C(CCC=C(C)C)C[C@@H]2c2ccc(F)cc2F)c(O)c1 (relative stereo)
PC50 (MIA PaCa-2 [1]): 0.63 µM
IC50 (MIA PaCa-2 [2]): 20.2 µM
IC50 (PANC-1 [3]): 21 µM
Selectivity Index [4]: 32
Selectivity Index [5]: 21.6
PC50 (PANC-1 [6]): 0.97 µM

COc1ccc([C@H]2CC(CCC=C(C)C)=CC[C@@H]2C(=O)c2c(O)cccc2O)cc1 (relative stereo)
PC50 (MIA PaCa-2 [1]): 4.73 µM
IC50 (MIA PaCa-2 [2]): > 100 µM
IC50 (PANC-1 [3]): 56.7 µM
Selectivity Index [5]: 52.8
PC50 (PANC-1 [6]): 1.08 µM
